In publication PMC8231556, “Inhibiting Endothelial Cell Function in Normal and Tumor Angiogenesis Using BMP Type I Receptor Macrocyclic Kinase Inhibitors” (Cancers, 2021):

Tests used:
Assay in all cases: radiometric kinase profiling (33 PanQinase)
Type in all cases: biochemical
SRC = target: T1, SRC (Homo sapiens, UniProt P12931); conditions: read-out: Inhibitory effect (%) SRC
T1 construct: purchased ProQinase (33PanQinase Activity Assay)
In short: (§1)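 Enzyme/substrate mixes were incubated with [γ-33P]-ATP and compound (added as a 0.1 μM solution in 10% DMSO) at 30 °C for 60 min, then stopped with H3PO4 and washed with NaCl. 33P incorporation was scintillation-counted, and residual activity (%) was normalized to untreated control and background.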

GSK3B = target: T2, GSK3B (Homo sapiens, UniProt P49841); conditions: read-out: Inhibitory effect (%) GSK3B
T2 construct: purchased ProQinase (33PanQinase Activity Assay)
In short: as §1

PRKCB1_II = target: T3, PRKCB1_II (Homo sapiens, UniProt P05771); conditions: read-out: Inhibitory effect (%) PRKCB1_II
T3 construct: purchased ProQinase (33PanQinase Activity Assay)
In short: as §1

HIPK1 = target: T4, HIPK1 (Homo sapiens, UniProt Q86Z02); conditions: read-out: Inhibitory effect (%) HIPK1
T4 construct: purchased ProQinase (33PanQinase Activity Assay)
In short: as §1

IGF1R = target: T5, IGF1R (Homo sapiens, UniProt P08069); conditions: read-out: Inhibitory effect (%) IGF1R
T5 construct: purchased ProQinase (33PanQinase Activity Assay)
In short: as §1

MET = target: T6, MET (Homo sapiens, UniProt P08581); conditions: read-out: Inhibitory effect (%) MET
T6 construct: purchased ProQinase (33PanQinase Activity Assay)
In short: as §1

PTK2 = target: T7, PTK2 (Homo sapiens, UniProt Q05397); conditions: read-out: Inhibitory effect (%) PTK2
T7 construct: purchased ProQinase (33PanQinase Activity Assay)
In short: as §1

PDGFRA = target: T8, PDGFRA (Homo sapiens, UniProt P16234); conditions: read-out: Inhibitory effect (%) PDGFRA
T8 construct: purchased ProQinase (33PanQinase Activity Assay)
In short: as §1

CLK2 = target: T9, CLK2 (Homo sapiens, UniProt P49760); conditions: read-out: Inhibitory effect (%) CLK2
T9 construct: purchased Proqinase, Germany
In short: as §1

NEK6 = target: T10, NEK6 (Homo sapiens, UniProt Q9HC98); conditions: read-out: Inhibitory effect (%) NEK6
T10 construct: purchased ProQinase (33PanQinase Activity Assay)
In short: as §1

ROCK2 = target: T11, ROCK2 (Homo sapiens, UniProt O75116); conditions: read-out: Inhibitory effect (%) ROCK2
T11 construct: purchased ProQinase (33PanQinase Activity Assay)
In short: as §1

PIM2 = target: T12, PIM2 (Homo sapiens, UniProt Q9P1W9); conditions: read-out: Inhibitory effect (%) PIM2
T12 construct: purchased ProQinase (33PanQinase Activity Assay)
In short: as §1

PHKG2 = target: T13, PHKG2 (Homo sapiens, UniProt P15735); conditions: read-out: Inhibitory effect (%) PHKG2
T13 construct: purchased ProQinase (33PanQinase Activity Assay)
T13 sequence (P15735 1-406): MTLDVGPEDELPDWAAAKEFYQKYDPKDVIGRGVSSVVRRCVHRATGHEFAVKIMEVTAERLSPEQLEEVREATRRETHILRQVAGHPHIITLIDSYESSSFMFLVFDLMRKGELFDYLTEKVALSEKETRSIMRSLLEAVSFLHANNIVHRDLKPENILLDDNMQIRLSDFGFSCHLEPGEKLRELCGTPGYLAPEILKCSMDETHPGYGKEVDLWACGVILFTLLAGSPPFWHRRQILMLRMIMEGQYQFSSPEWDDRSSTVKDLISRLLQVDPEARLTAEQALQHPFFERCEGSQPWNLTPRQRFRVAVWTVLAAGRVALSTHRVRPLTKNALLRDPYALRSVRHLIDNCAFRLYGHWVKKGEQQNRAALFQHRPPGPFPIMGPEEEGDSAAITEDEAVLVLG
In short: as §1

MAPK14 = target: T14, MAPK14 (Homo sapiens, UniProt Q16539); conditions: read-out: Inhibitory effect (%) MAPK14
T14 construct: purchased ProQinase (33PanQinase Activity Assay)
In short: as §1

CDK9_cyclinT1 = target: T15, CDK9_cyclinT1 (Homo sapiens, UniProt P50750); conditions: read-out: Inhibitory effect (%) CDK9_cyclinT1
T15 construct: purchased Proqinase, Germany
In short: as §1

PRKD2 = target: T16, PRKD2 (Homo sapiens, UniProt Q9BZL6); conditions: read-out: Inhibitory effect (%) PRKD2
T16 construct: purchased ProQinase (33PanQinase Activity Assay)
T16 sequence (Q9BZL6 1-878): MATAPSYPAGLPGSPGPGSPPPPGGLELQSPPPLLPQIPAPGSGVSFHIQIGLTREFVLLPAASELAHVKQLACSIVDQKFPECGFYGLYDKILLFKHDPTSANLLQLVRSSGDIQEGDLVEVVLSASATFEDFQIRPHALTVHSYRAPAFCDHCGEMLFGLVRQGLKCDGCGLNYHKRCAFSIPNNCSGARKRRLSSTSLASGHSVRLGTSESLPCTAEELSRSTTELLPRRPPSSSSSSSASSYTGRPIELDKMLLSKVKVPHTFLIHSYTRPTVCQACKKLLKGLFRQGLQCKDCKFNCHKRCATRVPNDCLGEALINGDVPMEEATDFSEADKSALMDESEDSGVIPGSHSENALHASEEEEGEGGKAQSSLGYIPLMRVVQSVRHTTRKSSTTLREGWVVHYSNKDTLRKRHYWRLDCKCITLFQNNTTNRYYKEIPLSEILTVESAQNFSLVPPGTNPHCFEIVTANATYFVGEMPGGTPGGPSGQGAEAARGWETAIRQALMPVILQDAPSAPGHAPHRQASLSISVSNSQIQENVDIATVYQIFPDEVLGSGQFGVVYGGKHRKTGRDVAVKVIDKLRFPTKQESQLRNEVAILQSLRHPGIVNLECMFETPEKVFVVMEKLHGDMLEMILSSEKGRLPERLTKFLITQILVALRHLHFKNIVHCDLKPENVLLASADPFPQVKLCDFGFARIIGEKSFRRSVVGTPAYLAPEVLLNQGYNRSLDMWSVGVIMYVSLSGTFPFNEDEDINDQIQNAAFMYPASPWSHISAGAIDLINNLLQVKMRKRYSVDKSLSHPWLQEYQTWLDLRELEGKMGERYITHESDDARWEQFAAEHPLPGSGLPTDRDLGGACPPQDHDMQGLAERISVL
In short: as §1

T6 sequence (P08581 25-1390): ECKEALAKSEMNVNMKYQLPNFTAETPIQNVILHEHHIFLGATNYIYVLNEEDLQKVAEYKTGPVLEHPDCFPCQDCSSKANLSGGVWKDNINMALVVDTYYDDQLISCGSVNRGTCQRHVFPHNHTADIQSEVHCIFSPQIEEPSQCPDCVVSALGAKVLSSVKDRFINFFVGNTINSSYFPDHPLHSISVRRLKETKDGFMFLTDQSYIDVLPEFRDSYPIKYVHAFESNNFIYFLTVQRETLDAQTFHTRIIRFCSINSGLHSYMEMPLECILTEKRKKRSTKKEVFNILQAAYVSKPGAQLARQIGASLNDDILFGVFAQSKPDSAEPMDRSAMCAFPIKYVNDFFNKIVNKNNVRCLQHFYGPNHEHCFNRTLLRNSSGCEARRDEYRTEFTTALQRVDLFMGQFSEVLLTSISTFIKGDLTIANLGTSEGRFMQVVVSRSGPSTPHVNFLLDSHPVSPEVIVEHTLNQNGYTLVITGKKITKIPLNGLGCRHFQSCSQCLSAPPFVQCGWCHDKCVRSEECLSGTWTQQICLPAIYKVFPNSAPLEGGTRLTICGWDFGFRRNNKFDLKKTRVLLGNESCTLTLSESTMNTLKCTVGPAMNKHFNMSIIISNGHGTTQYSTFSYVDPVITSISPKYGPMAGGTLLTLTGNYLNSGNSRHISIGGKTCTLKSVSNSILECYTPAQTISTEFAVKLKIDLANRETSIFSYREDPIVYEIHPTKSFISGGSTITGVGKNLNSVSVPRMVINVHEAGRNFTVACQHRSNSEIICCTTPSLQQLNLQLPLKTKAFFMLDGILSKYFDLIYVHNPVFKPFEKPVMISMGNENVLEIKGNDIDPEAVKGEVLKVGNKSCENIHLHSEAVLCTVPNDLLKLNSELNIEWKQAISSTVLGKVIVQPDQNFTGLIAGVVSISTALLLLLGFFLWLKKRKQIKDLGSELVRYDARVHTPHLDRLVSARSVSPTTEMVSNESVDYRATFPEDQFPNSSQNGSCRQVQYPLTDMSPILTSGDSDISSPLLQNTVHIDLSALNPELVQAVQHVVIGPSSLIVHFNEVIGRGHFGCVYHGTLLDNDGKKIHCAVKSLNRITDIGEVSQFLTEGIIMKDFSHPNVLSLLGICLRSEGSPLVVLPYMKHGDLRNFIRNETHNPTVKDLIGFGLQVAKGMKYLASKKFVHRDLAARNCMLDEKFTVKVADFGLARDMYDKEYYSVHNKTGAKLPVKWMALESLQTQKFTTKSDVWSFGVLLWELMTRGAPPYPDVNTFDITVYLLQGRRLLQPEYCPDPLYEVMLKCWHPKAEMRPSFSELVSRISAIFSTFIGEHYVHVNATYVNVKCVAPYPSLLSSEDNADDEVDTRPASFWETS
T12 sequence (Q9P1W9 whole entry): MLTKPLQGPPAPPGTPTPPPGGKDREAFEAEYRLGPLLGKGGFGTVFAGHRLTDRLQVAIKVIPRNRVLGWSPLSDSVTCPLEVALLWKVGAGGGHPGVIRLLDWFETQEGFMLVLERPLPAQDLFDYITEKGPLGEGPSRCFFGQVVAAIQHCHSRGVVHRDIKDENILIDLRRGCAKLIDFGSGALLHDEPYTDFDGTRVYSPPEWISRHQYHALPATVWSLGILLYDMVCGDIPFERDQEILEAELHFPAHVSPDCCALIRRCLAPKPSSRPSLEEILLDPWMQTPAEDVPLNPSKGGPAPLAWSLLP
T2 sequence (P49841 whole entry): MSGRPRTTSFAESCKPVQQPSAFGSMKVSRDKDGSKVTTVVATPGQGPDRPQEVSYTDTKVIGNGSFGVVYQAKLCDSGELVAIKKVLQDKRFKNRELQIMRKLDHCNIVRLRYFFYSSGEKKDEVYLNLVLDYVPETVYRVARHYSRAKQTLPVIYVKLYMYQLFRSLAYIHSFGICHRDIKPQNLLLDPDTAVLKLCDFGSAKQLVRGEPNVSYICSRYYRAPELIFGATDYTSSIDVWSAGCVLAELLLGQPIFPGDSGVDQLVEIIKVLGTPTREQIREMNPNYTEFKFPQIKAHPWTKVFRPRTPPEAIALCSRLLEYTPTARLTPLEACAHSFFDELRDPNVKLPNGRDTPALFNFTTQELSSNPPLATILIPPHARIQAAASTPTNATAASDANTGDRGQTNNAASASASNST
T5 sequence (P08069 31-1367): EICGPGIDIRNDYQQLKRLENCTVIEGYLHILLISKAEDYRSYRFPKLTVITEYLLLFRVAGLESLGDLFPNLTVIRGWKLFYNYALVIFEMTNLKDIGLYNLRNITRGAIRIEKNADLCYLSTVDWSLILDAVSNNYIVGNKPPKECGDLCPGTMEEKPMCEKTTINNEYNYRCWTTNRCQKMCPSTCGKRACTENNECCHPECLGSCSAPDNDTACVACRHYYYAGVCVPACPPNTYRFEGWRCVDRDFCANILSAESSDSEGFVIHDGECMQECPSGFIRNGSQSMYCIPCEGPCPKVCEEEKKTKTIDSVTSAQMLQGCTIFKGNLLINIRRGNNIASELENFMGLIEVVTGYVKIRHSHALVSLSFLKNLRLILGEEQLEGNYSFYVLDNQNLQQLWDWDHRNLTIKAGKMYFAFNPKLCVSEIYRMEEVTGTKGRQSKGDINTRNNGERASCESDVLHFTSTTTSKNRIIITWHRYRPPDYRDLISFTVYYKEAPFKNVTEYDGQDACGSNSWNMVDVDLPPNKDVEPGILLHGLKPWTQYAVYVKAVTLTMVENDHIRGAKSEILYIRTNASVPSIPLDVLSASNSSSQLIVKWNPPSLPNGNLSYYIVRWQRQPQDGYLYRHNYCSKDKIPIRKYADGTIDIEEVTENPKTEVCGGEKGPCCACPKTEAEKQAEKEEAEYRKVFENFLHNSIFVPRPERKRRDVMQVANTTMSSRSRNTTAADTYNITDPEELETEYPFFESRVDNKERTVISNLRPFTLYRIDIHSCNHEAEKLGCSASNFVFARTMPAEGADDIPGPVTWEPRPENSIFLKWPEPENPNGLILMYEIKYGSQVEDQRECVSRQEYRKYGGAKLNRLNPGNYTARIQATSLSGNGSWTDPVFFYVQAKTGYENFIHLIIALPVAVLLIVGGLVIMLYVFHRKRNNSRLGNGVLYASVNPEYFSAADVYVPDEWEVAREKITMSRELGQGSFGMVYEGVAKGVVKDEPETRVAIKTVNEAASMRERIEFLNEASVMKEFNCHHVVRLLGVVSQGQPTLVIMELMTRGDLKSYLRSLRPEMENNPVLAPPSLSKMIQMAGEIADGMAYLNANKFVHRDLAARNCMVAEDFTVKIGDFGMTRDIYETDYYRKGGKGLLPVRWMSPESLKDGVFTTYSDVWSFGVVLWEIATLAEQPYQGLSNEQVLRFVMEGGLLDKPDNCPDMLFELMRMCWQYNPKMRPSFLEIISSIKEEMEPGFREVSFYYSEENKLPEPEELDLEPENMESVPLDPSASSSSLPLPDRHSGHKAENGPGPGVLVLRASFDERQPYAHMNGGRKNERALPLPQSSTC
T14 sequence (Q16539 whole entry): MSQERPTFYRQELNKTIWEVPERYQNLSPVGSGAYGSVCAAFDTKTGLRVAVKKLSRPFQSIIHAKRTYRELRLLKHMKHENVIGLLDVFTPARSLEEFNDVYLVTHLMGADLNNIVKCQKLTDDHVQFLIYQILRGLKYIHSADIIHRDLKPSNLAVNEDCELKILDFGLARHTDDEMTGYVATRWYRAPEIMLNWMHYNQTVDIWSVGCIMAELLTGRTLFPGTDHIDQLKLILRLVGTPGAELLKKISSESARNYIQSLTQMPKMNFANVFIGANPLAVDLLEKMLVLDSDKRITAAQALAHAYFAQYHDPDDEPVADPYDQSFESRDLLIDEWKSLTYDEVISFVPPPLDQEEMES
T10 sequence (Q9HC98 whole entry): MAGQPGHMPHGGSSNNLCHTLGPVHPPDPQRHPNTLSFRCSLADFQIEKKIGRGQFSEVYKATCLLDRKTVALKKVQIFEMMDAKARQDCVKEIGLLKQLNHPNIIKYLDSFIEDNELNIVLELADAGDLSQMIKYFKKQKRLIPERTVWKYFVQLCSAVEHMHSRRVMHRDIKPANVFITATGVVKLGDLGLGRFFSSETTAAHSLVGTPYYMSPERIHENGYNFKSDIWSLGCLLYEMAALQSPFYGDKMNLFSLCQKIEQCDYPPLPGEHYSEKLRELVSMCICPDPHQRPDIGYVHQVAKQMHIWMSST
T1 sequence (P12931 whole entry): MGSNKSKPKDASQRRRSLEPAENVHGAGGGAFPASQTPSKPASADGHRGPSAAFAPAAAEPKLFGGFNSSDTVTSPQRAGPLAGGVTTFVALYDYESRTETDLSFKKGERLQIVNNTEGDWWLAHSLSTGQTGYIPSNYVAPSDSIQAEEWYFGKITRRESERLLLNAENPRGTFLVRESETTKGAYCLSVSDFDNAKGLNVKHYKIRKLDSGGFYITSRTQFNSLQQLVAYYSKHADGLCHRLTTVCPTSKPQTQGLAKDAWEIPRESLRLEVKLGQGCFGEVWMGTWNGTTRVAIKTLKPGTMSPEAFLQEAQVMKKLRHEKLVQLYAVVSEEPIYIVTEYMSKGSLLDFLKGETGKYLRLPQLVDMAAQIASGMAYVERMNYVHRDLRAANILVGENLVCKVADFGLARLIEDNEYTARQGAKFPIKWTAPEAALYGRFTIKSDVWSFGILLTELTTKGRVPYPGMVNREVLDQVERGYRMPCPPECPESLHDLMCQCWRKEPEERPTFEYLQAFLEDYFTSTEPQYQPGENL

Row | Structure (SMILES) | inhibition at 0.1 µM (SRC) | inhibition at 0.1 µM (GSK3B) | inhibition at 0.1 µM (PRKCB1_II) | inhibition at 0.1 µM (HIPK1) | inhibition at 0.1 µM (IGF1R) | inhibition at 0.1 µM (MET) | inhibition at 0.1 µM (PTK2) | inhibition at 0.1 µM (PDGFRA) | inhibition at 0.1 µM (CLK2) | inhibition at 0.1 µM (NEK6) | inhibition at 0.1 µM (ROCK2) | inhibition at 0.1 µM (PIM2) | inhibition at 0.1 µM (PHKG2) | inhibition at 0.1 µM (MAPK14) | inhibition at 0.1 µM (CDK9_cyclinT1) | inhibition at 0.1 µM (PRKD2)
1 | CN1CCC(=O)NCCNc2ccn3ncc(c3n2)-c2cccc(c2)C1 [OD29] | -4.82% | 3.34% | 3.7% | 6.23% | 13.9% | -3.42% | -0.22% | -9.93% | 7.62% | 4.01% | -0.26% | 1.97% | -1.93% | 45.2% | -2.77% | 5.45%
2 | c1ccc2c(-c3cnn4cc(-c5ccc(N6CCNCC6)cc5)cnc34)ccnc2c1 [LDN-193189, reference compound] | 2.89% | -28.2% | 1.8% | -13.4% | 8.78% | 1.47% | 4.03% | 3.63% | 34.2% | 7.05% | 13.1% | 6.22% | -23.6% | 0.3% | -26.7% | -23.1%
3 | CN1CCc2cccc(c2)Nc2nccc(n2)N2CCCc3cc(ccc32)C1 [OD16] | -19.4% | 1.33% | 15.9% | -7.23% | -39.5% | 5.95% | 17.1% | -16% | -10% | -21.1% | 42.6% | -5.63% | 1.87% | -3.1% | 54.2% | 32.2%
